In data set [1] the test system is P. berghei ANKA GFP-Luc-SMcon sporozoites. Kind of data set: P. berghei-luciferase liver stage bioluminescence assay (causal prophylactic mode) in HepG2-CD81 cells. It counts as cell-based, Plasmodium berghei. Particulars: for Emax: 48 h, read-out: P.berghei-Luciferase Liver Stage Bioluminescence Assay: Maximum measured (%); for inhibition at 10 µM: read-out: P. berghei sporozoites Maximum inhibition %. On the procedure: (§1) Briefly, HepG2-CD81 cells were seeded into 1,536 well plates containing 50 nL of test and control compounds diluted into DMSO. […] Next, 2 μL of luciferin reagent (Promega BrightGlo) was added to each well and luciferase activity was detected using a Perkin Elmer Envision plate reader. […] In parallel, plates were processed without sporozoites for HepG2 toxicity measurements.
(§2) In continuation of the transmission blocking theme, it is important to establish activities against liver stage parasites. […] This assay uses ultra-high-throughput screening methods optimized for a 1536-well format and a HepG2 human hepatoma cell line. […] To establish selectivity of the compounds for the parasite in the liver stage of infection, cytotoxicity was determined by measuring bioluminescence from the reaction between free ATP of compound-treated, uninfected hepatocytes and a luciferase reporter system.

Data set [2] deals with P. falciparum NF54 late stage gametocytes (>90% stage IV and V). In words: Gametocytocidal luciferase reporter assay, late stage, 72 h. It counts as cell-based, Plasmodium falciparum. Conditions: Plasmodium falciparum, NF54, 72 h, read-out: Late Stage (LG, Luc 72 h) IC50, >90% stage IV and V gametocytes, ±SEM. On the procedure: (§3) P. falciparum parasites (NF54, K1, and W2) were cultured in vitro in human erythrocytes (A^+ or O^+) under 90% N2, 5% CO2, and 5% O2 atmospheric conditions with supplemented RPMI 1640 media (Sigma Aldrich) containing Albumax II, as previously described (Verlinden et al., [2011]). This study was carried out according the guidelines set out by the Faculty of Health Sciences Ethical Committee, Ethical Clearance no. EC-120821/077. The protocol was approved by the Faculty of Health sciences ethical committee at the University of Pretoria. All subjects gave written informed consent in accordance with the Declaration of Helsinki. Parasite proliferation was monitored microscopically using Giemsa stained smears. Synchronized ring stage parasites (>95%) were obtained using a 5% D-sorbitol (Sigma Aldrich) treatment. […] Gametocyte cultures were kept stationary under 90% N2, 5% CO2, and 5% O2 atmospheric conditions at 37°C and treated with 50 mM N-acetyl-glucosamine (NAG) to eliminate residual invasion of asexual parasites.
(§4) Gametocytocidal activity was determined using the luciferase reporter line (Reader et al., [2015]) to derive dose responses with two-fold serial drug dilutions for 48 h against early stage gametocytes (day 5 post-induction population, >90% stage I–III) and 10-fold serial drug dilutions for 72 h against late stage gametocytes (day 10 post-induction population, >90% late stage IV–V) (2% gametocytemia, 2% hematocrit), at 37°C under 90% N2, 5% CO2, and 5% O2 atmospheric conditions.
(In general: In a reporter assay the amount or activity of a reporter protein is the signal.)

The nature of data set [3]: HepG2 cytotoxicity bioluminescence assay (CellTiterGlo, ATP). The format is cell-based, human. Conditions: human, uninfected HepG2-CD81 cells; for IC50 at 72 h: two biological replicates listed in one cell; for EC50 at 72 h: uninfected HepG2, ATP bioluminescence. As to the method: as §1, §2
Data set [4] has as its system HepG2 cells. Described as above. It counts as cell-based, human. Conditions: two biological replicates listed in one cell. As to the method: as §1, §2
For data set [5], the system named is P. falciparum Dd2. In words: Metabolic (parasite LDH) assay, asexual ring stage parasites, 48 h. Particulars: Plasmodium falciparum, pLDH, Dd2 CQ, pyrimethamine resistant. The format is cell-based. As to the method:
(§5) Working solutions of the derivatives were prepared from a 10 mM stock solution in 100% DMSO in supplemented RPMI 1640 media containing Albumax II with a final DMSO concentration of <0.1%, previously determined as being non-toxic to intraerythrocytic asexual parasites and gametocytes. Dose responses were assayed using a two-fold serial drug dilution on in vitro >95% ring stage intraerythrocytic P. falciparum parasites at 37°C under 90% N2, 5% CO2, and 5% O2 atmospheric conditions, detecting both parasite lactate dehydrogenase (pLDH) activity as a metabolic marker following a 48 h drug exposure (1.5–2% parasitemia and 2% hematocrit; Makler et al., [1993]) and SYBR Green I fluorescence as proliferative marker following a 96 h drug exposure (1% parasitemia and 1% hematocrit). […] Data analysis was performed using GraphPad Prism 7.

Data set [6] concerns P. falciparum NF54. The description is as above. Particulars: Plasmodium falciparum, pLDH, CQ-sensitive NF54. It counts as cell-based. As to the method: as §3, §5
Data set [7] can be described thus: Cytotoxicity, MTT assay. The format is cell-based. Particulars: Chinese hamster, CHO cells. On the procedure:
(§6) Cytotoxicity (EC50) was determined against Chinese hamster ovarian (CHO) using a 3-(4,5-dimethylthiazol-2-yl)-2,5-diphenyltetrazolium bromide (MTT) assay and hepatocellular carcinoma cells (HepG2) using the Cytoselect LDH cytotoxicity assay kit (Cell Biolabs).
(In general: Tetrazolium assays rely on reduction of a dye to a coloured formazan, in cell work by metabolically active cells.)

Data set [8] in a line: Cytotoxicity, Cytoselect LDH cytotoxicity assay kit. It counts as cell-based. Conditions: human, HepG2 cells. As to the method:
as §6

The subject of data set [9] is P. falciparum K1. In words: Proliferative (SYBR Green I) assay, asexual parasites, 96 h. It counts as cell-based. Particulars: Plasmodium falciparum, ±SEM. As to the method: as §3, §5
Data set [10] concerns P. falciparum W2. The data set is described as above. The format is cell-based. Particulars: Plasmodium falciparum, ±SEM. As to the method: as §3, §5
The test system of data set [11] is P. falciparum NF54. The data set is described as above. The format is cell-based. Particulars: Plasmodium falciparum, ±SEM. As to the method:
as §3, §5

Data set [12] concerns asexual P. falciparum NF54, Dd2, K1, W2. In words: Asexual P. falciparum, metabolic (pLDH) and proliferative (SYBR Green I) platforms. The format is cell-based. Particulars: Plasmodium falciparum. On the procedure: Data analysis was performed using GraphPad Prism 7.
The in vitro activities of the new derivatives were determined against drug sensitive NF54 and multi-drug resistant Dd2, K1, and W2 intraerythrocytic asexual P. falciparum malaria parasite strains using both a metabolic (parasite LDH) and a proliferative (SYBR Green I fluorescence) assay readout (Table 1).

Data set [13] has as its system P. falciparum NF54 early stage gametocytes (>90% stage I–III). In words: Gametocytocidal luciferase reporter assay, early stage, 48 h. Particulars: Plasmodium falciparum, NF54, 48 h, read-out: Early Stage (EG, Luc 48 h) IC50. The format is cell-based. On the procedure: as §3, §4
The mark [14] stands for this setting: Plasmodium berghei, two biological replicates listed in one cell.
Where [15] appears, read: Plasmodium berghei, two biological replicates listed in one cell, read-out: P.berghei-Luciferase Liver Stage Bioluminescence Assay: IC50.
Where [16] appears, read: read-out: IC50 for drug sensitive NF54 parasites across both assay platforms.
[17] abbreviates: drug-sensitive and -resistant parasites, both assay platforms, read-out: IC50, asexual P. falciparum metabolic activity and proliferation.
Where [18] appears, read: >90% stage I–III gametocytes, ±SEM.

The structures appear in SMILES notation. Where “and” joins values, the source holds several entries; their conditions need not be identical. Identical values can stand only once. Like-named read-outs stand apart in the source and are kept apart here.

Data on 4 compounds can be found in publication PMC6967409 (Frontiers in Chemistry, 2020).

Take `C[C@H]1[C@H](N2CCN(C(=O)Nc3ccc(F)cc3)CC2)O[C@@H]2O[C@@]3(C)CC[C@H]4[C@H](C)CC[C@@H]1[C@@]24OO3` [Compound 24]: in data set [1] (setting [14]), the Emax was 99.2%. Also, the IC50 in data set [1] (Plasmodium berghei, HepG2, 48 h, read-out: P. berghei sporozoites IC50, liver stage, HepG2 host cells, luciferase after 48 h, ±SD) came to 106 ± 6.36 nM; in data set [1] (setting [15]), 101 nM; in data set [1] (two biological replicates listed in one cell, listed as 24 (WHN-12), read-out: P.berghei-Luciferase Liver Stage Bioluminescence Assay: IC50) it was 110 nM; in [2], 17 ± 7 nM; in [4] (listed as 24 (WHN-12)), 3880 nM; in [5] it was 9.2 ± 1.9 nM. Moreover, the IC50 is 1.21 ± 0.04 nM in data set [6]; 0.85 ± 0.1 nM in data set [9]; 1.16 ± 0.17 nM in data set [10]; 1.3 ± 0.1 nM in data set [11]; 1 to 2 nM in data set [12] (setting [16]); 36 ± 10.2 nM in data set [13]. Also, the inhibition at 10 µM in [1] (Plasmodium berghei) worked out at 94.8 ± 2.76%. The same compound yielded an IC50 at 72 h in data set [3] of 6440 nM. For the same compound, in data set [3], it took 5160 nM to reach a half-maximal effect (EC50 at 72 h). Besides, the “HepG2 Cytotoxicity Bioluminescence Assay: Maximum measured (%)” value in [4] (listed as 24 (WHN-12)) was 59.5% and 66.1%. Besides, the 50% effective concentration (EC50) was found to be 204000 nM in data set [7] and 340 nM in [8].

Turning to `CCCCCCCCCCCCCCCC(=O)N1CCN([C@@H]2O[C@@H]3O[C@@]4(C)CC[C@H]5[C@H](C)CC[C@@H]([C@H]2C)[C@@]35OO4)CC1` [Compound 26], the IC50 in data set [12] (setting [17]) was in the range of 50 to 100 nM.

Consider `C[C@H]1[C@H](N2CCN(S(=O)(=O)c3ccc(C(F)(F)F)cc3)CC2)O[C@@H]2O[C@@]3(C)CC[C@H]4[C@H](C)CC[C@@H]1[C@@]24OO3` [Compound 18], for which the IC50 is 4.8 ± 4.2 nM in data set [2]; 74.3 ± 6.42 nM in data set [5]; 15.3 ± 2 nM in data set [6]; 22 ± 2.7 nM in data set [9]; 23.8 ± 1.4 nM in data set [10]; 13.9 ± 1.2 nM in data set [11]. Besides, the IC50 was 15 to 74 nM in data set [12] (setting [17]) and 89.7 ± 28.8 nM in data set [13] (setting [18]). For the same compound, the EC50 in data set [7] stood at 154000 nM; in data set [8], 217 nM.

Regarding `C[C@H]1[C@H](N2CCN(C(=O)Nc3ccc(C(F)(F)F)cc3)CC2)O[C@@H]2O[C@@]3(C)CC[C@H]4[C@H](C)CC[C@@H]1[C@@]24OO3` [Compound 23], in [1] (setting [14]), the Emax was found to be 99.5%. In addition, the IC50 is 82.5 ± 4.17 nM in data set [1] (Plasmodium berghei, HepG2, 48 h, liver stage, HepG2 host cells, luciferase after 48 h, ±SD, read-out: P. berghei sporozoites IC50); 79.6 nM in data set [1] (setting [15]); 85.5 nM in [1] (two biological replicates listed in one cell, listed as 23 (WHN-11), read-out: P.berghei-Luciferase Liver Stage Bioluminescence Assay: IC50); 1 ± 0.3 nM in [2]; 3910 nM in [4] (listed as 23 (WHN-11)); 12.2 ± 1.9 nM in data set [5]. Also, the IC50 in [6] was 1.83 ± 0.2 nM; in data set [9], 1.12 ± 0.13 nM; in data set [10] it was 1.41 ± 0.09 nM; in [11], 1.55 ± 0.08 nM; in [12] (setting [16]) it was 1 to 2 nM; in [13] (setting [18]), 20 ± 9.4 nM. Besides, the inhibition at 10 µM in data set [1] (Plasmodium berghei, Conc. 10 μM) was found to be 105 ± 7.42%. The IC50 at 72 h in [3] worked out at 6990 nM. The compound further yielded an EC50 at 72 h in [3] of 5450 nM. The “HepG2 Cytotoxicity Bioluminescence Assay: Maximum measured (%)” value in data set [4] (listed as 23 (WHN-11)) is 50.9% and 55.9%. The EC50 amounted to 185000 nM in data set [7] and 453 nM in data set [8].

The term inhibition denotes the drop in the measured response relative to a control, in per cent. Usually EC50 stands for the midpoint of the concentration-response curve.
